This note sets out measurements from paper PMC8802628, “Selective activation of PFKL suppresses the phagocytic oxidative burst” (Cell, 2021).

In test [1] the target is T1, PFKL (Homo sapiens, UniProt P17858).
T1 construct: endogenous in cells; host or cells: THP-1 cell lysate
T1 sequence (P17858 2-780 limits assumed): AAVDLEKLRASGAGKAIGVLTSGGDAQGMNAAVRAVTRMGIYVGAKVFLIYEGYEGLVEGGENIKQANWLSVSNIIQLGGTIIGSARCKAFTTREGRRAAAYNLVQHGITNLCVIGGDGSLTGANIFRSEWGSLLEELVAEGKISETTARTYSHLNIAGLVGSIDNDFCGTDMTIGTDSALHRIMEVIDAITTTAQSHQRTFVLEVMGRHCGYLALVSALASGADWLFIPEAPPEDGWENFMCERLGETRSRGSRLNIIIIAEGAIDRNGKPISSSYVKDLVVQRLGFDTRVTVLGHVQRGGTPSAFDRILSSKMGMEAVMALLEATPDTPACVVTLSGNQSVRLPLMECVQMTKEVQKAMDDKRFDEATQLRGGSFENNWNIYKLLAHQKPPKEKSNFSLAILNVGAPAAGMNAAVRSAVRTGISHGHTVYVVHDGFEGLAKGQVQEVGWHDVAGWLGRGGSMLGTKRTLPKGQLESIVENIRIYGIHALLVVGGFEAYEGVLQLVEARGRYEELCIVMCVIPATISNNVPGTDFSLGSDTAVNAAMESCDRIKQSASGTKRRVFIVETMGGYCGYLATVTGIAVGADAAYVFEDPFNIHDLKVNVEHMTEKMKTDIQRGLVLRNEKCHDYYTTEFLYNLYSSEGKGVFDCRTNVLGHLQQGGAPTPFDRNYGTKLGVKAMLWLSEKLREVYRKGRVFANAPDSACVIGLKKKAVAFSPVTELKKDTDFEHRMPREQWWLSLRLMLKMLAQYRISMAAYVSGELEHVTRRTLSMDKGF
The test is described as follows: Thermal proteome profiling (TPP) of neutrophil lysates. It counts as binding. As to conditions: 10 μM NA-11, 37°C to 65°C. On the procedure:
Neutrophils (3 × 10^7) were treated with 50 nM PMA for 20 min. Cell were washed twice in D-PBS, resuspended in KB buffer (25 mM Tris-HCL pH 7.5, 1 mM DTT, 10 mM MgCl2) and frozen in liquid nitrogen. Lysates were prepared by 5-7 freeze-thaw cycles in KB buffer. Protein concentration was determined via Bradford assay and lysates were incubated on ice for 30 min with either 10 μM NA-11 or DMSO vehicle. Samples were analyzed in two formats: (1) classical thermal proteome profiling (TPP) with full melting curves using 16-plex TMT labeling (8 temperatures between 37-65°C), and (2) Proteome Integral Solubility Alteration (PISA) assay with aggregated protein abundance from a defined temperature range using 10-plex TMT labeling (Five replicates 44-58°C). […]
For the classical TPP, quantitative data from each temperature were used to generate a thermal titration curve and calculate a melting point. PSM level quantitation was log2 transformed and summarized to protein level by aggregating all PSMs from the same primary Uniprot reference, and systematic variation between the treatments was normalized at each temperature. […] A quality score is calculated for each protein by evaluating R squares, curve slopes and similarity in slopes between the two fitted curves. […] Fold changes and p values were calculated between pre-defined treatment groups by the MSstats package. […]

The target of test [2] is T2, recombinant NAMPT (Homo sapiens, UniProt P43490).
T2 construct: purchased BPS Bioscience 71276-1
Put plainly: NAMPT activity assay. In kind it is biochemical. As to conditions: 500 nM to 160 pM. On the procedure: NA-11 was diluted in ultra-pure water at concentrations between 500 nM to 160 pM, and preincubated with recombinant NAMPT for 30 min. NAMPT activity was measured using a fluorescence NAMPT Inhibitor Screening assay kit (BPS Bioscience).

SMILES strings stand for the structures.

T2 sequence (P43490 whole entry, species assumed): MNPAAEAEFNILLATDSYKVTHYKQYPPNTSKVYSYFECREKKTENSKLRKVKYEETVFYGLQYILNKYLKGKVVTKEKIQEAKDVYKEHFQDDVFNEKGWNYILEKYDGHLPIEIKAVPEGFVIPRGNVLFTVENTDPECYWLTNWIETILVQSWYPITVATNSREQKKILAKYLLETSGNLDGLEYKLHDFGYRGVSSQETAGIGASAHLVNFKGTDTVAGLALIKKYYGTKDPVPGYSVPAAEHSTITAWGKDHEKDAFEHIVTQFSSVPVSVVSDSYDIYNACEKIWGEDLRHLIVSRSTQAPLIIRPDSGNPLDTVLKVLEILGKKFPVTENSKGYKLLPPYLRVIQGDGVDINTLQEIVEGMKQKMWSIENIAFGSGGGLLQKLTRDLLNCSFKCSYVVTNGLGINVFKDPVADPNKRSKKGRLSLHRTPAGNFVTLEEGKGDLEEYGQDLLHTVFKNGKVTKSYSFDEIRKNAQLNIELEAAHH

On to `CC(=O)Nc1ccc2c(c1)OCc1cc(-c3ccccc3C#CCCCO)nn1C2` [NA-11], for which, in test [1], the “thermal shift in melting temperature (Tm) of PFKL” value worked out at 4 °C. The “activity of recombinant NAMPT” value in test [2] was “did not affect the activity of recombinant NAMPT”.
